Data on three molecules can be found in patent US20030162814A1, “N-substituted 1-amino-1,1-dialkylcarboxylic acid derivatives” (priority 2000, published 2003).

The structures appear in SMILES notation.

As for `CC(=O)O.CC(C)(C)NS(=O)(=O)c1ccccc1-c1ccc(NC(=O)C(C)(C)Nc2cccc(C(=N)N)c2)cc1`, the melting point (usually the temperature, or range, at which the solid turns liquid) turned out to be 153 °C.
Under `CC(C)(Nc1cccc(C(=N)N)c1)C(=O)Nc1ccc(-c2ccccc2S(N)(=O)=O)cc1.O=C(O)C(F)(F)F` stands 197 °C.
The result for `CC(C)(C)NS(=O)(=O)c1ccccc1-c1ccc(NC(=O)C(C)(C)Nc2cccc(C#N)c2)cc1` [CB, N-(2′-tert-butylsulfamoyl-biphenyl-4-yl)-2-(3-cyanophenylamino)-2-methylpropionamide] reads 190 to 193 °C.
